This note sets out measurements from patent US20260138969A1 (Korea Research Institute of Chemical Technology, priority 2023, published 2026).

Molecules are shown by their SMILES.

Series [1] has as its target T1, recombinant human ASK1 protein (Homo sapiens, UniProt Q99683).
T1 sequence (Q99683 1-1374): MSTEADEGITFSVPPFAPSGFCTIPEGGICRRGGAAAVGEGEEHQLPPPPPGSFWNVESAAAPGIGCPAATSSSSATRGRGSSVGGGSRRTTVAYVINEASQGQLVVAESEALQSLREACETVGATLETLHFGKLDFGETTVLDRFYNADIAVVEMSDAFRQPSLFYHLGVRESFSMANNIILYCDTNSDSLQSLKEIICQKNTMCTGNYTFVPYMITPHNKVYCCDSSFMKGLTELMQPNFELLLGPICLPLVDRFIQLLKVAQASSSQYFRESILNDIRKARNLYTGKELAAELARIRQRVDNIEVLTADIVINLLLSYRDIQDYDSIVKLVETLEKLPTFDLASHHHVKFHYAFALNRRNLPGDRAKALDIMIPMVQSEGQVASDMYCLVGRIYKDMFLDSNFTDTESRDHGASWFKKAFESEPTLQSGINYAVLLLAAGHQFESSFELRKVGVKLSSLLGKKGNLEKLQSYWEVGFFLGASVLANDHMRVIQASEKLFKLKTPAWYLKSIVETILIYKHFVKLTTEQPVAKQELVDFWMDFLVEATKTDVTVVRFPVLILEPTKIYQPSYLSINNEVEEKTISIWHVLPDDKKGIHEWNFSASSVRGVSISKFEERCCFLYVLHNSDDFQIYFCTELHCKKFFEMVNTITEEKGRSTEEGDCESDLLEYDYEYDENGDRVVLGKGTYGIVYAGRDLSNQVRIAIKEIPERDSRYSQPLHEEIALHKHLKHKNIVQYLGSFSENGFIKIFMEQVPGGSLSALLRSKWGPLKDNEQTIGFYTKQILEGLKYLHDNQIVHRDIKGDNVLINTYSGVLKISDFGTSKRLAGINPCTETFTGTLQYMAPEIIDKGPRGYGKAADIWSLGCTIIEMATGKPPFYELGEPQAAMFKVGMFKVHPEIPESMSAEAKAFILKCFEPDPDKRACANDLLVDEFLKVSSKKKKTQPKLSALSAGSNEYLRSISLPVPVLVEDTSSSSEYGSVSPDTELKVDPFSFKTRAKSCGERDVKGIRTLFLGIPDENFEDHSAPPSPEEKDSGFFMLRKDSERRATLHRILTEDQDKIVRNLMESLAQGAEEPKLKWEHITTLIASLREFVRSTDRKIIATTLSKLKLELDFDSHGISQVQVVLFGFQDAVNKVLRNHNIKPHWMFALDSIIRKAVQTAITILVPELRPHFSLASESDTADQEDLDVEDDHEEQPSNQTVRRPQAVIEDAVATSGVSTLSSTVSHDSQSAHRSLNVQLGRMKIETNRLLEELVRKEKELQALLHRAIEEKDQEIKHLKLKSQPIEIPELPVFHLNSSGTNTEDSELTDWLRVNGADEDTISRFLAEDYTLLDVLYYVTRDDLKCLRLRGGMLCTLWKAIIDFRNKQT
The experiment in a line: Evaluation of ASK1 inhibition activity ([gamma-33P]-ATP, scintillation counting). Type of series: biochemical. On the procedure: The recombinant human ASK1 protein was initiated by adding a mixture of Mg/ATP to the reaction solution (8 mM MOPS PH 7.0, 0.2 mM EDTA, 0.33 mg/mL myelin basic protein, 10 mM Mg Acetate and [gamma-33P]-ATP), and the reaction was terminated by adding 0.5% phosphoric acid after 40 min at room temperature.

Series [2] in a line: MDR-MDCK cell membrane permeability assessment. The format is in vitro ADME. The conditions noted are these: dog; MDCK-MDR1 monolayer, 37° C., 2 hours. As for the experimental part: (§1) MDCK-MDR1 cells (5×10^5 cells/mL) were incubated on a 24-transwell plate (Corning, NY, USA) for 4 days to measure permeability through a single layer of MDR-MDCK cells. The medium was replaced with a new medium every two days, and the electrical resistance between epithelial tissues (TEER) was measured using a Millicell® ERS-2 Volohmmeter (Merck KGaA, Darmstadt, Germany), and the cell membrane permeability test was performed after confirming that this value was greater than or equal to 300 Ohm.cm^2.
(§2) The apical and basolateral chambers were washed twice each in the order of Hanks' Balanced Salt Solution (HBSS) containing DPBS buffer and 10 mM Hydroxyethyl piperazine Ethane sulfonic acid (HEPES), and in the final washing step, HBSS was filled and maintained at a stable state at 37° C. for 30 minutes. After 30 minutes, the test material was instilled in each chamber and left at 37° C. for 2 hours, and the culture medium of the transferred layer was collected at 30-minute intervals, and the collected amount was supplemented with new HBSS.
(§3) The apparent permeability coefficient (Papp, cm/sec) was calculated using the following formula:
(§4) [formula] • Papp: Apparent permeability • dQ/dt: Permeability of the drug • A: Area of the filter membrane on which the cells are laid • C_0: Initial concentration of the drug
(§5) In addition, the Efflux ratio was calculated as follows: […]

A further series deals with MDR1. The experiment in a line: MDR-MDCK cell membrane permeability assessment. Type of series: in vitro ADME. Conditions: dog; MDCK-MDR1 monolayer. On the procedure:
as §1, §2, §3, §4, §5

Another series concerns SH-SY5Y cells. The experiment in a line: Cytoprotective effects in MPP+-induced human neurons (CCK-8). The format is cell-based. Conditions: MPP+ 5 mM induced cytotoxicity, cell viability by CCK-8. On the procedure: SH-SY5Y cells were purchased from ATCC and cultured at 37° C. and 5% CO2 in RPMI medium containing 10% FBS and 1% penicillin and streptomycin. MPP+ was purchased from Sigma Aldrich and treated with 5 mM to induce cytotoxicity.

The test system of series [3] is PC12 cells. Briefly: Neuronal protective efficacy against 6-OHDA (MTT). The format is cell-based. Conditions: Rattus norvegicus, PC-12, 6-OHDA 40 μM, Control = 100, read-out: cell viability (AVE). As for the experimental part:
(§6) The neuronal toxicity substances 6-OHDA (6-hydroxydopamine hydrobromide) and MPP+ (1-methyl-4-phenylpyridinium) were purchased from Sigma-Aldrich (Saint Louis, MO, USA) and made into 100 mM DMSO stock. PC12 cells were seeded on 96-well plates with 4 pieces of 1×10 per well and incubated for one day. The cells were pretreated with each concentration of embodied compound for 1 h. Subsequently, 40 μM 6-OHDA and 2 mM MPP^+ were added and incubated for 24 hours, respectively. Subsequently, cell viability was measured using MTT (Invitrogen, MA, USA).

For series [4], the system named is PC12 cells. Briefly: Neuronal protective efficacy against MPP+ (MTT). Type of series: cell-based. Conditions: Rattus norvegicus, PC-12, MPP 2 mM, Control = 100, read-out: cell viability (AVE). As for the experimental part:
as §6

The nature of series [5]: Distribution in the mouse brain (plasma and brain AUC). The format is in vivo. On the procedure:
The blood-brain barrier permeability in ICR mice was confirmed by oral administration of 10 mg/kg of test material. Male […] mice were fasted for 15 h prior to administration. The test material was administered at a dose of 10 mg/kg and a volume of 5 mL/kg, and the solvent composition was N-Methyl-2-pyrrolidone (NMP), Polyethylene glycol 400 (PEG 400), and distilled water (D.W) at a volume ratio of 10:40:50(%), respectively. After administration, blood and brain tissue samples were taken by sacrificing mice with carbon dioxide inhalation at each time point corresponding to 1, 4, and 8 hours. Whole blood was collected from the abdominal vena cava, and brain samples were collected after systemic perfusion with saline to remove as much blood as possible.
The distribution ratio in mouse plasma and brain was calculated by calculating the AUC after concentration quantification in each tissue.

The subject of series [6] is CDAHFD-induced non-alcoholic steatohepatitis mouse model. Briefly: CDAHFD-induced non-alcoholic steatohepatitis mouse model: liver fibrosis (Picrosirius red). The format is in vivo. The conditions noted are these: Selonsertib 30 mg/kg, Example 3 10 and 30 mg/kg, Example 2 10 and 30 mg/kg PO QD; CDAHFD diet 4 and 8 weeks. As for the experimental part: Creation of CDAHFD-induced NASH model and drug administration were carried out by dividing C57BL/6 male mice at 3 weeks of age into 7 groups as shown in Table 16 below. The control group (G1) was fed standard feed and water. Groups G2 to G7 were fed the CDAHFD (Research Diet Inc, #A06071302) diet for 4 and 8 weeks.
Picrosirius red staining was used for histological visualization of collagen fibers. Histopathology analysis evaluated the efficacy of improving liver fibrosis.
For mice in each group, three sections of the liver fixed with 4% PFA (paraformaldehyde) were prepared with paraffin blocks. Paraffin blocks were sectioned to a thickness of 5 μm (Histocore AUTOCUT R, Leica Microsystems, Germany) and the sections were mounted on silane-coated slides (MUTO, JPN) and stored until staining.
Xylene was used to remove paraffin from the slides, and the slides were moisturized and washed. The slides were stained with a solution of Picrosirius red (ab150681, Abcam, UK) and washed off with a solution of acetic acid. The slides were fitted after dehydration and cleaning using alcohol and xylene. For each section, two images of different areas were taken using a microscope (Axioscan7, ZEISS, Germany). The fibrotic area was measured using image J software compared to the total area. FIGS. 23a and 23b are graphs and images of Picrosirius red stained area ratios in the liver of a CDAHFD-induced mouse model of nonalcoholic steatohepatitis.

[7] abbreviates: oral 10 mg/kg, samples at 1, 4, 8 hours.

For orientation: IC50 means the concentration that inhibits the measured activity by half. The Papp A→B is the apparent permeability from the apical to the basolateral side of a cell layer. As a reminder, the Papp B→A is the apparent permeability from the basolateral to the apical side of a cell layer. Usually efflux ratio stands for the permeability from basolateral to apical divided by that in the opposite direction, in the common usage. As for `Cc1cc(F)c(C(=O)Nc2cccc(-n3nnc4c3CCCCC4)n2)cc1-n1cnc(C2CC2)c1` [Example 4, 5-(4-cyclopropyl-1H-imidazole-1-yl)-2-fluoro-4-methyl-N-(6-(5,6,7,8-tetrahydrocyclohepta[d][1,2,3]triazole-1 (4H)-yl)pyridine-2-yl)benzamide], the half-inhibitory concentration (IC50) in series [1] came to 92 nM. In series [2], this molecule registered an apical-to-basolateral permeability (Papp A→B) at 2 h of 57.3 ± 4.23 ×10⁻⁶ cm/s and a Papp B→A at 2 h of 87.4 ± 3.39 ×10⁻⁶ cm/s. Moreover, the efflux ratio at 2 h with MDR1 came out at 1.53.
For orientation: EC50 means the concentration needed to bring the measured effect to its halfway point. A lower EC50 goes with greater potency. The term viability denotes the share of living cells, or the viability signal relative to a control. The Kp is tissue or fluid exposure divided by exposure in the circulation. In turn, `Cc1cc(F)c(C(=O)Nc2cccc(-c3nncn3C(C)C)n2)cc1-n1cnc(C2CC2)c1` [Comparative Example 1, Selonsertib, reference compound] registered an EC50 in the series with SH-SY5Y cells of 89 nM. Besides, the viability at 0.1 µM came out at 87.9% in the series on PC12 cells [3] (compound 0.1 μM) and 83.6% in the series with PC12 cells [4] (compound 0.1 μM). Also, the figures for the viability at 0.3 µM in the series on PC12 cells [3] (compound 0.3 μM) and with PC12 cells [4] (compound 0.3 μM) were 89.2% and 81.3%, respectively. The viability at 1 µM turned out to be 84.1% with PC12 cells [3] (compound 1 μM) and 81.3% with PC12 cells [4] (compound 1 μM). This molecule registered a concentration ratio (Kp) in series [5] (male, brain/plasma, po, 10 mg/kg) of 0.004. In series [5] (setting [7]), this molecule had an Aukinf brain of 0.26 ± 0.03 ug*h · g. The molecule further returned an Aukinf plasma in series [5] (setting [7]) of 69.9 ± 3.48 µg·mL·h. Further, the “Picrosirius red staining area in the liver” value in series [6] was “significantly reduced”.
